Data on 21 compounds can be found in patent US7053189B2 (Oregon Health & Sciences University, priority 1990, dated 2006).

In assay [1] the target is D2 in pig anterior pituitary homogenates (Sus scrofa, UniProt A0ACM8QMZ9). It is filed as binding. The following applies: for Ki: read-out: D2Ki.
For assay [2], the target named is T1, human D4 dopamine receptor (Homo sapiens, UniProt P21917, DEL271-302/N396T/P18R).
T1 sequence (P21917 with tags, fused parts or gaps P18R/DEL271-302/N396T): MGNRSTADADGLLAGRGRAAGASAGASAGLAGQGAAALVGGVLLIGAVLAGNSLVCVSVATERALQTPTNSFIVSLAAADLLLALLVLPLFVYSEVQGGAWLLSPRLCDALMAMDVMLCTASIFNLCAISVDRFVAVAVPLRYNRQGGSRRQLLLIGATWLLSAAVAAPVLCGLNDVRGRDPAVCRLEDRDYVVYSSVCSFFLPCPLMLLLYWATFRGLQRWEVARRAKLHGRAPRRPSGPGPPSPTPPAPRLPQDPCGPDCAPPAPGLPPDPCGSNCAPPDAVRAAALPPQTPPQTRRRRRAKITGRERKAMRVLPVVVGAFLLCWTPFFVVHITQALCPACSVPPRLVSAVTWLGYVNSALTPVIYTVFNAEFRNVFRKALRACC

In assay [3] the target is T2, human D2 (long) (Homo sapiens, UniProt P14416).
T2 construct: expressed in transfected cells; host or cells: GH(4)ZR(7)
Put plainly: D2 dissociation constants, human D2 receptor expressed in GH(4)ZR(7) cells. The assay is classed as binding.

The target of assay [4] is T1, human D4 dopamine receptor. Put plainly: [3H]spiperone binding to membranes of COS-7 cells transfected with human D4 receptor construct.
In assay [5] the target is T1, human D4 dopamine receptor. Nature of the assay: biochemical.
The mark [6] stands for this setting: T = Ki in pig anterior pituitary homogenates, no unit in table.

Where two headings read alike, the source gives them in different places.

D2 in pig anterior pituitary homogenates, sequence (A0ACM8QMZ9 1-443): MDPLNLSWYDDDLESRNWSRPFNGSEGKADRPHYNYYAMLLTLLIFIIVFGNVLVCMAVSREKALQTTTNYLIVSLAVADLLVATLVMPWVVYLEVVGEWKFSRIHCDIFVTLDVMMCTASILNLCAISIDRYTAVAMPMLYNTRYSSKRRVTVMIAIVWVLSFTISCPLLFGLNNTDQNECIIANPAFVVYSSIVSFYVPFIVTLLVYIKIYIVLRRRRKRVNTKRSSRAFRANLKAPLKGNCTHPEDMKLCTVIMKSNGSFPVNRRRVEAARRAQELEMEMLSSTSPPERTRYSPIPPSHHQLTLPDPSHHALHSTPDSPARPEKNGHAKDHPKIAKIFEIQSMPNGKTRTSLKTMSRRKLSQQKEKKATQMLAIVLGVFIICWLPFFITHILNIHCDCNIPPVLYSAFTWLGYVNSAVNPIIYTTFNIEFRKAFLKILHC
T2 sequence (P14416 whole entry): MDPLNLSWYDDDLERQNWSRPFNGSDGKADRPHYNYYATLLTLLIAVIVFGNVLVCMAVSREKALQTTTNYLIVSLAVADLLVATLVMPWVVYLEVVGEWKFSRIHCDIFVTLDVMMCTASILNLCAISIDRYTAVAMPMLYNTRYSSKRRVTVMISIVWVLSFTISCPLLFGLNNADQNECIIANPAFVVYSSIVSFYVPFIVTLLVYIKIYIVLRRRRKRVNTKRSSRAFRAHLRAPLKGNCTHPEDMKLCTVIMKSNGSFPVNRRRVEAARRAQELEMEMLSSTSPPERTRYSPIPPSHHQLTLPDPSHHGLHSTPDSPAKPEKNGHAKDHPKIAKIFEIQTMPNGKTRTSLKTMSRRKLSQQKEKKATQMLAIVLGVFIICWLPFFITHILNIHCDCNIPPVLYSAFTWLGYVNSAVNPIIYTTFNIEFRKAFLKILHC

On to `NC1CCc2cc(O)c(O)cc2C1` (racemic) [ADTN-(±)], for which the Ki in assay [1] (setting [6]) is 1.7 nM; in assay [2] it was 33.7 nM.
As for `NC[C@H](O)c1ccc(O)c(O)c1` [(−) Noradrenaline], the Ki in assay [1] is about 6000 nM.
As for `CC(C)C[C@H]1C(=O)N2CCC[C@H]2[C@]2(O)O[C@](NC(=O)[C@@H]3C=C4c5cccc6[nH]c(Br)c(c56)C[C@H]4N(C)C3)(C(C)C)C(=O)N12` [Bromocriptine], the Ki turned out to be 14 nM in assay [3] and 128 nM in assay [4].
As for `CC(C)C[C@H]1C(=O)N2CCC[C@H]2[C@]2(O)O[C@](NC(=O)[C@@H]3C=C4c5cccc6[nH]cc(c56)C[C@H]4N(C)C3)(C(C)C)C(=O)N12` [Ergocriptine-S], the Ki was found to be 0.4 nM in assay [1] (setting [6]) and 55 nM in assay [4] (read-out: D4Ki).
As to `CCc1cc(Cl)c(OC)c(C(=O)NC[C@@H]2CCCN2CC)c1O` [Eticlopnde], the “[formula] (ratio D2Ki to D4Ki)” value in assay [1] came out at 0.17. Also, the Ki in assay [4] turned out to be 0.52 nM.
`OCCN1CCN(CCCN2c3ccccc3Sc3ccc(C(F)(F)F)cc32)CC1` [Fluphenazine] displayed a Ki in assay [5] of 42 nM.
`O=C(c1ccc(F)cc1)C1CCN(CCn2c(=O)[nH]c3ccccc3c2=O)CC1` [Ketanserin] showed a Ki in assay [5] of 147 nM.
`CCCN(CCc1cccs1)[C@H]1CCc2c(O)cccc2C1` [N-0437]: the Ki in assay [1] (setting [6]) stood at 0.7 nM; in assay [2], 93 nM.
In the same order, the values of `CCCN1CCc2cccc3c2[C@H]1Cc1ccc(O)c(O)c1-3` [NPA] are 0.4 nM and 5.5 nM.
Take `CN1CCN(C2Cc3ccccc3Sc3ccc(Cl)cc32)CC1` (centres unmarked) [Octoclothepin-R]: in assay [1], the Ki worked out at 13.5 nM.
As for `CCCN1CCO[C@@H]2c3cc(O)ccc3CC[C@H]21` [PHNO-(+)], the Ki was found to be 1.2 nM in assay [1] (setting [6]) and 42 nM in assay [2].
As to `O=c1[nH]c2ccccc2n1C1CCN(CCCC(c2ccc(F)cc2)c2ccc(F)cc2)CC1` [Pimozide], the Ki in assay [4] stood at 25 nM.
For `CCCN1CCC[C@@H]2Cc3n[nH]cc3C[C@H]21` [Quinpirole(−)], the Ki in assay [1] (setting [6]) is 4.8 nM.
As for `CCN1CCC[C@H]1CNC(=O)c1c(O)c(Cl)cc(Cl)c1OC` [Raclopride], in assay [5], the Ki was 253 nM.
On the same count and under the same terms, under `CN1CCc2cc(Cl)c(O)cc2[C@@H](c2ccccc2)C1` [SCH23390] stands 1960 nM.
In assay [4], `Oc1cc2c(cc1O)C(c1ccccc1)CNCC2` (centres unmarked) [SKF-38393] had a Ki of 1600 nM.
`NCCc1c[nH]c2ccc(O)cc12` [Serotonin]: in assay [5], the Ki was about 8000 nM.
For the compound `CN1CCN(CCCN2c3ccccc3Sc3ccc(S(=O)(=O)N(C)C)cc32)CC1` [Thioproperazine], in assay [5], the Ki amounted to 53 nM.
In assay [5], `CSc1ccc2c(c1)N(CCC1CCCCN1C)c1ccccc1S2` (centres unmarked) [Thioridazine] returned a Ki of 12 nM.
Consider `CNc1cc(OC)c(C(=O)NC2CCN(Cc3ccccc3)C2C)cc1Cl` (centres unmarked) [YM-09151-2], for which, in assay [1] (setting [6]), the Ki turned out to be 0.06 nM.
Consider Fencidopam, for which the figures for the Ki in assay [1] (setting [6]) and in assay [2] were 2.8 nM and 420 nM, respectively.
